# Columns and labels:
# [1] = tested on: GHRHR mutants (F82, F85, D274, E223, N296, L337, F338 to alanine); assay: β-arrestin 1 recruitment (BRET), GHRHR single-point alanine mutants; assay type: cell-based, human; conditions: single residue to alanine; 250 μM GHRH; HEK293T; Fig. 5G
# Procedure: HEK293T cells were seeded at a density of 30,000 cells per well into 96-well culture plates pretreated with poly-D-lysine hydrobromide. After incubation for 24 h to reach 70% to 80% confluence, the cells were transiently transfected with HA-Flag-GHRHR-Rluc8 or HA-Flag-SV1-Rluc8 and β-arrestin 1/2-Venus at a 1:9 mass ratio using lipofectamine 3000 reagent (Invitrogen) and cultured for another 24 h. Thereafter, cells were washed once and incubated for 30 min at 37 °C with HBSS buffer (pH 7.4) supplemented with 0.1% BSA and 10 mM HEPES. Five micromolars of coelenterazine h (YEASEN Biotechnology) was then added and incubated for 5 min in the dark. The bioluminescence resonance energy transfer (BRET) signals were detected with an Envision plate reader by calculating the ratio of emission at 535 nm over emission at 470 nm.
# [2] = tested on: GHRHR ECD mutants (L34, L62, F82, F85 to alanine); assay: cAMP accumulation, ECD alanine mutants of GHRHR; assay type: cell-based, human; conditions: any or all of four ECD residues (L34, L62, F82, F85) to alanine; HEK293T
# Procedure: (§1) GHRH-stimulated cAMP accumulation was measured by a LANCE Ultra cAMP kit (PerkinElmer). Briefly, HEK293T cells (24 h after transfection with SV1 or GHRHR) or prostate cancer cells were digested by 0.2% (wt/vol) EDTA and washed once with Dulbecco’s phosphate-buffered saline (PBS). Cells were then resuspended with stimulation buffer (Hanks’ balanced salt solution [HBSS] supplemented with 5 mM HEPES, 0.5 mM IBMX, and 0.1% [wt/vol] bovine serum albumin [BSA], pH 7.4) to a density of 0.6 million cells per milliliter and added to 384-well white plates (3,000 cells per well). […] The reaction was stopped by adding 5 μL Eu-cAMP tracer and 5 μL ULight-anti-cAMP. After 1 h RT incubation, TR-FRET signals (excitation: 320 nm, emission: 615 and 665 nm) were measured by an Envision plate reader (PerkinElmer). cAMP concentrations were interpolated by a standard curve.
# GHRHR Δ92 = molecular target: T1, GHRHR Δ92 (Homo sapiens, UniProt Q02643); assay: cAMP accumulation; assay type: cell-based; conditions: Table S2, mean ± SEM
# T1 construct: expressed in transfected cells; host or cells: HEK293T
# T1 sequence (Q02643 93-423 limits assumed, stated change not applied): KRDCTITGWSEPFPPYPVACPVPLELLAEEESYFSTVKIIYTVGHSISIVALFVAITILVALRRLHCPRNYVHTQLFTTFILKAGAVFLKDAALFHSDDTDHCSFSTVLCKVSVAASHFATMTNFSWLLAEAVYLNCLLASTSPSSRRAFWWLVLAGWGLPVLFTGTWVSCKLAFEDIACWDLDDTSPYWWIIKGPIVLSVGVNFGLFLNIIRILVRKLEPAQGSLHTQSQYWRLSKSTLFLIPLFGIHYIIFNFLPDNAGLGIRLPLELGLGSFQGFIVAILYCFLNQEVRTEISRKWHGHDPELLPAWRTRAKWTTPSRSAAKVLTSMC
# Procedure: as §1
# (§2) All functional study data were analyzed using Prism 7 (GraphPad) and presented as means ± SEM from at least three independent experiments. Concentration-response curves were evaluated with a three-parameter logistic equation. The significance was determined with either two-tailed Student’s t test or one-way ANOVA, and P < 0.05 is considered statistically significant.
# (§3) Table S2. Effects of residue mutation or truncation in the ECD of GHRHR on GHRH-induced cAMP […]
# (§4) Mutant pEC50 Emax (% WT GHRHR) expression ΔLog (τ/KA) […]
# (§5) cAMP accumulation data were analyzed using a three-parameter logistic equation to determine pEC50 and Emax values. pEC50 is the negative logarithm of the molar concentration of agonist that induced half the maximal response. Emax for mutants is expressed as a percentage of the WT GHRHR. Data were analyzed by nonlinear regression using the operational model equation to determine t he logR values (logτ/KA, i.e., logarithm of the transduction ratio). τ is the effi cacy value of the agonist and was corrected by cell surface expression of the receptor. KA is dissociation constant. Changes in transduction ratio (ΔlogR) were calculated to determine the relative effectiveness of the mutants. All values are means ± S.E.M. of at le ast three ind ep en dent experiments (n = 3-5) conducted in quadruplicate. Statistical analysis was carried out by comparing the control responses in the WT GHRHR. **, P < 0.01 and ***, P < 0.001, determined by one-way
# GHRHR Δ72 = molecular target: T2, GHRHR Δ72 (Homo sapiens, UniProt Q02643); assay: cAMP accumulation; assay type: cell-based; conditions: Table S2, mean ± SEM
# T2 construct: expressed in transfected cells; host or cells: HEK293T
# T2 sequence (Q02643 73-423 limits assumed, stated change not applied): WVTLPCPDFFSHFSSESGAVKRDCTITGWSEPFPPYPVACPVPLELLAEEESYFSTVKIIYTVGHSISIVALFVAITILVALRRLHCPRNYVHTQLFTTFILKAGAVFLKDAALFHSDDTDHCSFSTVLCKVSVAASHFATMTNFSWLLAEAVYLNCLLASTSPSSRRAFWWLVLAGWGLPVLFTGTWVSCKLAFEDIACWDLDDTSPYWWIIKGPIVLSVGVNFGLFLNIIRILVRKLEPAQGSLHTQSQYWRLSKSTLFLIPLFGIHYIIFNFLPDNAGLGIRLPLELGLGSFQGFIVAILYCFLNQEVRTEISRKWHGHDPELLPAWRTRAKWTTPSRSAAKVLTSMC
# Procedure: as §1, §2, §3, §4, §5
# [3] = molecular target: T3, GHRHR L34A-L62A-F82A-F85A (Homo sapiens, UniProt Q02643, F82A/F85A/L34A/L62A); assay: cAMP accumulation; assay type: cell-based; conditions: Table S2, mean ± SEM
# T3 construct: expressed in transfected cells; host or cells: HEK293T
# T3 sequence (Q02643 23-423 L34A/L62A/F82A/F85A): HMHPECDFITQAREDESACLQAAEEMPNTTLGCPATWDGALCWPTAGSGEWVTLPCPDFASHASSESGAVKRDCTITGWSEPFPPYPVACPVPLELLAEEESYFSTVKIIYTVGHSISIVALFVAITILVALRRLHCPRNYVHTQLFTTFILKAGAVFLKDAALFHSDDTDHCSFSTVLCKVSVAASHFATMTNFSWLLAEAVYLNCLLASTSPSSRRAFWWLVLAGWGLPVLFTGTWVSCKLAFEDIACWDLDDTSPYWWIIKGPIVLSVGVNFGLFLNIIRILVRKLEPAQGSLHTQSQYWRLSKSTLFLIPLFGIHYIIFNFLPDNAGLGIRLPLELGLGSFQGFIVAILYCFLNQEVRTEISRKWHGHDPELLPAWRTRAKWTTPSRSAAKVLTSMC
# Procedure: as §1, §2, §3, §4, §5
# GHRHR F82A = molecular target: T4, GHRHR F82A (Homo sapiens, UniProt Q02643, F82A); assay: cAMP accumulation; assay type: cell-based; conditions: Table S2, mean ± SEM
# T4 construct: expressed in transfected cells; host or cells: HEK293T
# T4 sequence (Q02643 23-423 F82A): as the sequence (Q02643 23-423 L34A/L62A/F82A/F85A) above, with A12L, A40L, A63F counted along it
# Procedure: as §1, §2, §3, §4, §5
# GHRHR L62A = molecular target: T5, GHRHR L62A (Homo sapiens, UniProt Q02643, L62A); assay: cAMP accumulation; assay type: cell-based; conditions: Table S2, mean ± SEM
# T5 construct: expressed in transfected cells; host or cells: HEK293T
# T5 sequence (Q02643 23-423 L62A): as the sequence (Q02643 23-423 L34A/L62A/F82A/F85A) above, with A12L, A60F, A63F counted along it
# Procedure: as §1, §2, §3, §4, §5
# cell cycle = assay: Cell cycle analysis (propidium iodide, flow cytometry); assay type: cell-based; conditions: 1 μM GHRH, 6 h
# Procedure: Following the treatment, the cells were digested by trypsin and collected by centrifugation. Cell pellets were washed with PBS and fixed with 70% (vol/vol) ethanol at 4 °C overnight. Cells were again collected by centrifugation and washed twice with PBS. They were then resuspended in PBS containing 0.2% Triton X-100, 50 μg/mL propidium iodide (PI), and […] RNase A and incubated for 30 min at 4 °C in the dark. After incubation, fluorescence intensity was measured with a NovoCyte flow cytometer (Acea Biosciences). Cells were gated for PI staining and cell accumulation in G1, and S and G2/M phases were calculated using the NovoExpress software.
# [4] = HEK-293T, HEK293T, n = 3-5 in quadruplicate
# [5] = operational model, τ corrected by cell surface expression, relative to WT GHRHR
structure (smiles),measurement,setting,value
"CC[C@H](C)[C@H](NC(=O)[C@H](C)NC(=O)[C@H](CC(=O)O)NC(=O)[C@H](C)NC(=O)[C@@H](N)Cc1ccc(O)cc1)C(=O)N[C@@H](Cc1ccccc1)C(=O)N[C@H](C(=O)N[C@@H](CC(N)=O)C(=O)N[C@@H](CO)C(=O)N[C@@H](Cc1ccc(O)cc1)C(=O)N[C@@H](CCCNC(=N)N)C(=O)N[C@@H](CCCCN)C(=O)N[C@H](C(=O)N[C@@H](CC(C)C)C(=O)NCC(=O)N[C@@H](CCC(N)=O)C(=O)N[C@@H](CC(C)C)C(=O)N[C@@H](CO)C(=O)N[C@@H](C)C(=O)N[C@@H](CCCNC(=N)N)C(=O)N[C@@H](CCCCN)C(=O)N[C@@H](CC(C)C)C(=O)N[C@@H](CC(C)C)C(=O)N[C@@H](CCC(N)=O)C(=O)N[C@@H](CC(=O)O)C(=O)N[C@H](C(=O)N[C@@H](CCSC)C(=O)N[C@@H](CO)C(=O)N[C@@H](CCCNC(=N)N)C(=O)N[C@@H](CCC(N)=O)C(=O)N[C@@H](CCC(N)=O)C(=O)NCC(=O)N[C@@H](CCC(=O)O)C(=O)N[C@@H](CO)C(=O)N[C@@H](CC(N)=O)C(=O)N[C@@H](CCC(N)=O)C(=O)N[C@@H](CCC(=O)O)C(=O)N[C@@H](CCCNC(=N)N)C(=O)NCC(=O)N[C@@H](C)C(=O)N[C@@H](CCCNC(=N)N)C(=O)N[C@@H](C)C(=O)N[C@@H](CCCNC(=N)N)C(=O)N[C@@H](CC(C)C)C(N)=O)[C@@H](C)CC)C(C)C)[C@@H](C)O [GHRH, growth hormone–releasing hormone]",β-arrestin 1 recruitment,[1],significantly increased the capability of GHRHR to recruit β-arrestin 1
same,GHRHR-elicited cAMP responses,[2],reduced GHRHR-elicited cAMP responses
same,Emax,GHRHR Δ92; [4],106 ± 2.38%
same,ΔLog (τ/KA),GHRHR Δ92; [5],-3.78 ± 0.03
same,Emax,GHRHR Δ72; [4],104 ± 2.57%
same,ΔLog (τ/KA),GHRHR Δ72; [5],-2.98 ± 0.04
same,Emax,[3]; [4],105 ± 5.52%
same,ΔLog (τ/KA),[3]; [5],-4.07 ± 0.04
same,Emax,GHRHR F82A; [4],99.8 ± 1.36%
same,ΔLog (τ/KA),GHRHR F82A; [5],-0.53 ± 0.05
same,Emax,GHRHR L62A; [4],98 ± 2%
same,ΔLog (τ/KA),GHRHR L62A; [5],-1.03 ± 0.04
same,cells in G1 phase,cell cycle; decreased from 46.6,32.8%
same,cells in G2/M phase,cell cycle; increased from 22.8,37.7%

# Reference: article PMC8501799, “Constitutive signal bias mediated by the human GHRHR splice variant 1” (Proceedings of the National Academy of Sciences of the …, 2021)
